From US9611262B2, “Substituted 2-azabicycles and their use as orexin receptor modulators” (JANSSEN PHARMACEUTICA NV, priority 2014, dated 2017)

Assays:
human orexin 1 receptor = human orexin 1 receptor (Homo sapiens (Human), UniProt O43613); assay: Human orexin 1 receptor radioligand binding (competitive); conditions: CHO cells stably expressing human orexin 1 receptor; 4 nM radioligand; averages of 2-20 runs; read-out: hOX1 Ki
Procedure: (§1) The in vitro affinity of the compounds of the invention for the rat/human orexin 1 and human orexin 2 receptors was determined by competitive radioligand binding using [^3H](1-(5-(2-fluoro-phenyl)-2-methyl-thiazol-4-yl)-1-((S)-2-(5-phenyl-(1,3,4)oxadiazol-2-ylmethyl)-pyrrolidin-1-yl)-methanone) (Langmead et al., 2004) and [^3H]EMPA (n-ethyl-2[96-methoxy-pyridin-3-yl)-(toluene-2-sulfonyl)-amino]-N-pyridin-3-ylmethyl acetamide), respectively (Langmead et al., 2004, British Journal of Pharmacology 141:340-346; Malherbe et al., 2004, British Journal of Pharmacology 156:1326-41).
(§2) Data are analyzed using pc-Sandy macro and graphed on Graphpad Prism 5. For analysis, each concentration point is averaged from triplicate values and the averaged values are plotted on Graphpad Prism. The IC50 was determined by applying the following equation (GraphPad Prism 5.0, San Diego) for one site competition where X=log (concentration) and Y=specific binding. Top denotes the total [^3H]— (1-(5-(2-fluoro-phenyl)-2-methyl-thiazol-4-yl)-1-((S)-2-(5-phenyl-(1,3,4)oxadiazol-2-ylmethyl)-pyrrolidin-1-yl)-methanone) binding, bottom denotes the nonspecific [^3H]— (1-(5-(2-fluoro-phenyl)-2-methyl-thiazol-4-yl)-1-((S)-2-(5-phenyl-(1,3,4)oxadiazol-2-ylmethyl)-pyrrolidin-1-yl)-methanone) binding. Graphpad Prism calculates Ki value from IC50 and the pre-determined Kd values for [^3H]— (1-(5-(2-fluoro-phenyl)-2-methyl-thiazol-4-yl)-1-((S)-2-(5-phenyl-(1,3,4)oxadiazol-2-ylmethyl)-pyrrolidin-1-yl)-methanone) and [^3H]-EMPA. The Ki for each compound is then uploaded into 3DX. Each run comprises individual compounds in triplicate. The data in Table 1 and Table 2 represent averages from between 2-20 runs
(§3) Rat and Human Orexin 1 Receptor Radioligand Binding Studies
(§4) Human Embryonic Kidney 293 cells (HEK293) stably expressing rat orexin 1 receptor (Genebank accession number NM_001525) or Chinese ovary cells (CHO) stably expressing human orexin 1 receptor (Genebank accession number […]) were grown to confluency in DMEM (Hyclone, cat # SH30022), 10% FBS, 1× Pen/Strep, 1× sodium pyruvate, 10 mM HEPES, 600 μg/mL G418 and DMEM/F12 (Gibco, Cat #11039), 10% FBS, 1× Pen/Strep, 600 μg/mL G418 media, respectively on 150 cm^2 tissue culture plates, washed with 5 mM EDTA in PBS (HyClone Dulbecco's Phosphate Buffered Saline 1× with Calcium and Magnesium, Cat # SH30264.01, hereafter referred to simply as PBS) and scraped into 50 ml tubes. After centrifugation (2K×G, 5 min at 4° C.), the supernatant was aspirated and the pellets frozen and stored at −80° C. Cells were resuspended in PBS in the presence of 1 tablet of protease inhibitor cocktail (Roche, Cat. #11836145001) per 50 mL. […] Competition binding experiments in 96 well polypropylene plates were performed using [^3H]— (1-(5-(2-fluoro-phenyl)-2-methyl-thiazol-4-yl)-1-((S)-2-(5-phenyl-(1,3,4)oxadiazol-2-ylmethyl)-pyrrolidin-1-yl)-methanone) (Moraveck Corporation, specific activity=35.3 Ci/mmol), diluted to a 10 nM concentration in PBS (4 nM final). Compounds were solubilized in 100% DMSO (Acros Organics, Cat. #61042-1000) and tested over a range of 7 concentrations (from 0.1 nM to 10 μM). The final concentration of DMSO in the reactions is equal to or less than 0.1%. Total and nonspecific binding was determined in the absence and presence of 10 μM almorexant. The total volume of each reaction is 200 μL (20 μL of diluted compounds, 80 μL of [^3H]— (1-(5-(2-fluoro-phenyl)-2-methyl-thiazol-4-yl)-1-((S)-2-(5-phenyl-(1,3,4)oxadiazol-2-ylmethyl)-pyrrolidin-1-yl)-methanone) diluted in PBS and 100 μL of the cell suspension). Reactions were run for 60 min at room temperature and terminated by filtration through GF/C filter plates (PerkinElmer, Cat. #6005174) presoaked in 0.3% polyethylenimine using the cell harvester (PerkinElmer Filtermate). The plates were washed 3 times by aspirating 30 ml PBS through the plates. Plates were dried in 55° C. oven for 60 min, scintillation fluid was added, and the radioactivity was counted on a Topcount (Packard). […]

rat orexin 1 receptor = rat orexin 1 receptor (Rattus norvegicus, UniProt P56718); assay: Rat orexin 1 receptor radioligand binding (competitive); conditions: HEK293 cells stably expressing rat orexin 1 receptor; 4 nM radioligand; averages of 2-20 runs; read-out: rOX1 Ki
Procedure: as §1, §2, §3, §4

human orexin 2 receptor = human orexin 2 receptor (Homo sapiens (Human), UniProt O43614); assay: Human orexin 2 receptor radioligand binding ([3H]-EMPA competition); conditions: HEK293 stably expressing human orexin 2 receptor; 2 nM [3H]-EMPA; averages of 2-20 runs; read-out: hOX2 Ki
Chain of human orexin 2 receptor (O43614 whole entry): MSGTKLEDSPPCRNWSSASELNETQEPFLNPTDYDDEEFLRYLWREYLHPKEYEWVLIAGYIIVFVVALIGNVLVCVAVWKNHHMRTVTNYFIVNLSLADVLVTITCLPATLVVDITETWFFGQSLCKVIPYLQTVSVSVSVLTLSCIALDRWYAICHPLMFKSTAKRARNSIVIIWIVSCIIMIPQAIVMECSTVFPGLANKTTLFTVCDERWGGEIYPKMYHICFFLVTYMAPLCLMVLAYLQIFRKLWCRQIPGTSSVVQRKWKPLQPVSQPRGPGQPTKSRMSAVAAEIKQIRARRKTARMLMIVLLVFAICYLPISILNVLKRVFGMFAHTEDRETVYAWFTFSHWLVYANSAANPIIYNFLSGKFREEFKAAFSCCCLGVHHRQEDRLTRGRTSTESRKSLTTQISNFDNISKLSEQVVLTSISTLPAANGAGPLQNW
Procedure, shortened: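 Membranes-free whole HEK293 cells stably expressing human OX2 receptor incubated with [3H]-EMPA and compound (7 concentrations, 0.1 nM–10 μM, ≤0.1% DMSO) for 60 min at room temperature; nonspecific binding with 10 μM almorexant. Filtration and scintillation counting; one-site IC50 converted to Ki using predetermined Kd, triplicates averaged over 2-20 runs.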

Chain of human orexin 1 receptor (O43613 whole entry): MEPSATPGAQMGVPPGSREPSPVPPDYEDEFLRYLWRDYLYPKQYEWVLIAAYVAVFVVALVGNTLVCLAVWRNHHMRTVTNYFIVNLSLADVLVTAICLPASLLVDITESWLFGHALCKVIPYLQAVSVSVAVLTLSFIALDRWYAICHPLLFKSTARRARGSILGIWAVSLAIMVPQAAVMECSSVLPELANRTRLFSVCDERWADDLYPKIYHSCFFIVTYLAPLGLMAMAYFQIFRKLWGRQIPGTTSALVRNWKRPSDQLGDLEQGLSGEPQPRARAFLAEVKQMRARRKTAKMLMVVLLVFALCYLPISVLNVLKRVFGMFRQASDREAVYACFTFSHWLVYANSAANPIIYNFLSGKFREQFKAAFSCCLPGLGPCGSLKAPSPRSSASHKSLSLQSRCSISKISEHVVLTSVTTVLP

Ki (human orexin 1 receptor) | Ki (rat orexin 1 receptor) | Ki (human orexin 2 receptor) | Compound
7 nM | 4 nM | – | Cc1cnc(C(=O)N2[C@H](C)[C@H]3C[C@@H](Oc4ccc(C(F)(F)F)cn4)[C@@H]2C3)c(-c2ncccn2)c1 (relative stereo) [Example 35, (5-methyl-3-(pyrimidin-2-yl)pyridin-2-yl)((1S*,3R*,4R*,6R*)-3-methyl-6-((5-(trifluoromethyl)pyridin-2-yl)oxy)-2-azabicyclo[2.2.1]heptan-2-yl)methanone]
5 nM | – | 343 nM | C[C@@H]1[C@H]2C[C@@H](Oc3ccc(C(F)(F)F)cn3)[C@H](C2)N1C(=O)c1ccccc1-c1cccc(F)n1 [Example 173, [2-(6-fluoro-2-pyridyl)phenyl]-[(1R,2R,4S,5R)-2-methyl-5-[[5-(trifluoromethyl)-2-pyridyl]oxy]-3-azabicyclo[2.2.1]heptan-3-yl]methanone]
– | 87 nM | > 10000 nM | COC[C@@H]1[C@@H]2CC[C@@H]([C@H](Oc3ccc(C(F)(F)F)cn3)C2)N1C(=O)c1ccccc1-c1ncccn1 [Example 181, [(1R,2S,4S,5R)-2-(methoxymethyl)-5-[[5-(trifluoromethyl)-2-pyridyl]oxy]-3-azabicyclo[2.2.2]octan-3-yl]-(2-pyrimidin-2-ylphenyl)methanone]
– | 11 nM | 95 nM | Cc1ccc(-c2ncccn2)c(C(=O)N2[C@H](C)[C@H]3C[C@@H](Oc4ccc(C(F)F)cn4)[C@@H]2C3)n1 [Example 182, [(1R,2R,4S,5R)-5-[[5-(difluoromethyl)-2-pyridyl]oxy]-2-methyl-3-azabicyclo[2.2.1]heptan-3-yl]-(6-methyl-3-pyrimidin-2-yl-2-pyridyl)methanone]
– | 5 nM | 565 nM | [2H]C([2H])([2H])[C@]1([2H])[C@H]2C[C@@H](Oc3ccc(C(F)(F)F)cn3)[C@H](C2)N1C(=O)c1cccc(F)c1-n1nccn1 [Example 164, [(1R,2R,4S,5R)-2-deuterio-2-(trideuteriomethyl)-5-[[5-(trifluoromethyl)-2-pyridyl]oxy]-3-azabicyclo[2.2.1]heptan-3-yl]-[3-fluoro-2-(triazol-2-yl)phenyl]methanone]
– | 71 nM | 236 nM | C[C@@H]1[C@H]2C[C@@H](Oc3ccc(C(F)(F)F)cn3)[C@H](C2)N1C(=O)c1cc(OCCBr)ccc1-n1nccn1 [Example 204, [5-(2-bromoethoxy)-2-(triazol-2-yl)phenyl]-[(1R,2R,4S,5R)-2-methyl-5-[[5-(trifluoromethyl)-2-pyridyl]oxy]-3-azabicyclo[2.2.1]heptan-3-yl]methanone]
– | 1100 nM | > 10000 nM | O=C(c1cc(F)ccc1-c1ncc(F)cn1)N1[C@H](CO)[C@@H]2CC[C@H]1[C@H](Oc1ccc(C(F)(F)F)cn1)C2 [Example 178, [5-fluoro-2-(5-fluoropyrimidin-2-yl)phenyl]-[(1R,2S,4S,5R)-2-(hydroxymethyl)-5-[[5-(trifluoromethyl)-2-pyridyl]oxy]-3-azabicyclo[2.2.2]octan-3-yl]methanone]
– | 544 nM | > 10000 nM | Cc1ccc(-n2nccn2)c(C(=O)N2[C@H](C)[C@H]3C[C@@H](Oc4ccc(C(F)(F)F)nc4)[C@@H]2C3)n1 (relative stereo) [Example 40, (6-methyl-3-(2H-1,2,3-triazol-2-yl)pyridin-2-yl)((1S*,3R*,4R*,6R*)-3-methyl-6-((6-(trifluoromethyl)pyridin-3-yl)oxy)-2-azabicyclo[2.2.1]heptan-2-yl)methanone]
– | 196 nM | > 10000 nM | C[C@@H]1[C@H]2C[C@@H](Oc3ccc(C(F)(F)F)cn3)[C@H](C2)N1C(=O)c1ccc(OCCF)cc1-n1nccn1 [Example 202, [4-(2-fluoroethoxy)-2-(triazol-2-yl)phenyl]-[(1R,2R,4S,5R)-2-methyl-5-[[5-(trifluoromethyl)-2-pyridyl]oxy]-3-azabicyclo[2.2.1]heptan-3-yl]methanone]
– | 60 nM | > 10000 nM | C[C@@H]1[C@H]2C[C@@H](Oc3ccc(C(F)(F)F)cn3)[C@H](C2)N1C(=O)c1cc2ccccc2nc1OCCO [Example 203, [2-(2-hydroxyethoxy)-3-quinolyl]-[(1R,2R,4S,5R)-2-methyl-5-[[5-(trifluoromethyl)-2-pyridyl]oxy]-3-azabicyclo[2.2.1]heptan-3-yl]methanone]
– | 7.4 nM | 286 nM | C[C@@H]1[C@H]2C[C@@H](Oc3ccc(C(F)(F)F)cn3)[C@H](C2)N1C(=O)c1c(OCCF)ccc2cccnc12 [Example 206, (7-(2-fluoroethoxy)quinolin-8-yl)((1S,3R,4R,6R)-3-methyl-6-((5-(trifluoromethyl)pyridin-2-yl)oxy)-2-azabicyclo[2.2.1]heptan-2-yl)methanone]
– | 53 nM | 795 nM | CCOC(=O)[C@@H]1[C@H]2C[C@@H](Oc3ccc(C(F)(F)F)cn3)[C@H](C2)N1C(=O)c1nc(C)ccc1-n1nccn1 [Example 192, ethyl (1R,2S,4S,5R)-3-[6-methyl-3-(triazol-2-yl)pyridine-2-carbonyl]-5-[[5-(trifluoromethyl)-2-pyridyl]oxy]-3-azabicyclo[2.2.1]heptane-2-carboxylate]
– | 845 nM | > 10000 nM | C[C@@H]1[C@H]2C[C@@H](Oc3ccc(C(F)(F)F)cn3)[C@H](C2)N1C(=O)c1cccc(-c2ccc(F)cc2)c1 [Example 36, (4′-fluoro-[1,1′-biphenyl]-3-yl)((1S,3R,4R,6R)-3-methyl-6-((5-(trifluoromethyl)pyridin-2-yl)oxy)-2-azabicyclo[2.2.1]heptan-2-yl)methanone]
– | 52 nM | 3940 nM | C[C@@H]1[C@H]2C[C@@H](Oc3ccc(C(F)(F)F)cn3)[C@H](C2)N1C(=O)c1ccccc1-c1ncc(OCCF)cn1 [Example 169, [2-[5-(2-fluoroethoxy)pyrimidin-2-yl]phenyl]-[(1R,2R,4S,5R)-2-methyl-5-[[5-(trifluoromethyl)-2-pyridyl]oxy]-3-azabicyclo[2.2.1]heptan-3-yl]methanone]
– | 9 nM | 1600 nM | C[C@@H]1[C@H]2C[C@@H](Oc3ccc(C(F)(F)F)cn3)[C@H](C2)N1C(=O)c1ccccc1-c1cnc(F)cn1 [Example 170, [2-(5-fluoropyrazin-2-yl)phenyl]-[(1R,2R,4S,5R)-2-methyl-5-[[5-(trifluoromethyl)-2-pyridyl]oxy]-3-azabicyclo[2.2.1]heptan-3-yl]methanone]
– | 3720 nM | > 10000 nM | C[C@@H]1[C@H]2C[C@@H](Oc3ccc(C(F)(F)F)nc3)[C@H](C2)N1C(=O)c1ncccc1-n1nccn1 (relative stereo) [Example 37, (3-(2H-1,2,3-triazol-2-yl)pyridin-2-yl)((1S*,3R*,4R*,6R*)-3-methyl-6-((6-(trifluoromethyl)pyridin-3-yl)oxy)-2-azabicyclo[2.2.1]heptan-2-yl)methanone]
